Tests used:
[1] = Solubility test: apparent solubility in water, supernatant concentration determined by HPLC; details: for apparent solubility: excess sample in 0.5ml of water, ultrasonic approx. 3 minutes, standing 30 minutes at room temperature, supernatant by HPLC, 30 min
Protocol: After standing for 30 minutes at room temperature, separate the supernatant by centrifugation. Determine the concentration of sample in supernatant by HPLC (defined as apparent solubility).

[2] = Stability test: heat treatment under reduced pressure, analysed by XRPD, DSC, TGA and IR; assay type: physicochemical; details: dried under reduced pressure at 80 °C for 8 hours, then in vacuum for 15 hours, TGA
Protocol: Dry the samples of the amorphous CDB-2914 obtained in the above-mentioned examples under reduced pressure at 80 °C for 8 hours, and then dry in vacuum for 15 hours.

[3] = Hygroscopicity test using a microbalance; assay type: physicochemical; details: 25 °C, relative humidity of 5% to 95%, Figure 2
Protocol: Evaluate hygroscopicity of the amorphous substance using a microbalance (MBA300W, WTI Company, USA). Hang the sample placed on the glass rack in an apparatus that preconditioned at 25 °C, and track the changes of sample weight at a relative humidity of 5% to 95%. Measure the weight of sample at each measurement point (relative humidity) at 2 minutes intervals. The final value was the weight unit at a time point that the variability is less than 0.2%.

Compound	apparent solubility [1] [µg/mL]	thermal stability (solid form after heat treatment) [2]	solubility relative to crystal form A ([1]; apparent solubility in water, amorphous versus crystal form A) [times]	hygroscopicity [3]
CC(=O)O[C@]1(C(C)=O)CC[C@H]2[C@@H]3CCC4=CC(=O)CCC4=C3[C@@H](c3ccc(N(C)C)cc3)C[C@@]21C [Known crystal(crystal form A), 17α-acetoxy-11β-(4-N,N-dimethylaminophenyl)-19-norpregna-4,9-diene-3,20-dione, reference compound]	0.125	–	–	–
CC(=O)O[C@]1(C(C)=O)CC[C@H]2[C@@H]3CCC4=CC(=O)CCC4=C3[C@@H](c3ccc(N(C)C)cc3)C[C@@]21C [amorphous form, 17α-acetoxy-11β-(4-N,N-dimethylaminophenyl)-19-norpregna-4,9-diene-3,20-dione]	1	remained amorphous	8	low hygroscopicity

From patent EP2767544A1, “AMORPHOUS SUBSTANCE OF 17 -ACETOXY-11 -(4-N,N-DIMETHYLAMINOPHENYL)-19-NORPREGNA-4,9-DIENE-3,20-DIONE AND PREPARATION METHOD THEREOF” (Shanghai Cdymax Pharmaceuticals Co., Ltd., priority 2011, dated 2013)
